# From US20240075050A1, “Methods and Compositions for Treating Leucine Rich Repeat Kinase 2 (LRRK2)-Associated Disorder or Condition” (University of Connecticut, priority 2022, published 2024)
# What was measured:
# LRRK2 = assay: Overexpressed LRRK2 levels in HEK 293T cells, Western blot; assay type: cell-based, human
# Protocol: FIGS. 2A-2T depicts that AICAr, the precursor of ATIC substrate, regulates LRRK2 expression levels and neuronal toxicity. FIGS. 2A and 2B depict the overexpressed LRRK2 levels in HEK 293T cells upon AICAr treatment. HEK293 cells were transfected with MYC-LRRK2 and treated with or without 1 mM AICAr for 48 hours. LRRK2 levels were analyzed by Western blot. FIGS. 2C and 2D depict the LRRK2 expression levels in SH-SY5Y cells upon AICAr treatment. Human neuroblastoma SH-SY5Y cells were treated with or without 1 mM AICAr for 48 hours. LRRK2 expression levels were analyzed by Western blot. FIGS. 2E and 2F depict the overexpressed (3-glucocerebrosidase (GCase) levels upon AICAr treatment. HEK 293T cells were transfected with V5-GCase and treated with or without 1 mM AICAr for 48 hours. GCase levels were analyzed by Western blot. FIGS. 2G-2N depict the LRRK2 expression levels in primary neurons (FIG. 2G and FIG. 2H), microglia (FIG. 2I and FIG. 2J), astrocytes (FIG. 2K and FIG. 2L) and human fibroblasts (FIG. 2M and FIG. 2N) upon AICAr treatment. Mouse primary cortical neurons, microglia, astrocytes or human fibroblasts from a health control were treated with or without 1 mM AICAr for 48 hours. LRRK2 expression levels were analyzed by Western blot. FIGS. 2O and 2P depict the overexpressed LRRK2 WT and pathogenic mutant levels upon AICAr treatment. HEK 293T cells were transfected with MYC-LRRK2 WT, R1441C (RC), R1441G (RG), Y1699C (YC), G2019S (GS) or I2020T (IT) and treated with or without 1 mM AICAr for 48 hours. LRRK2 expression levels were analyzed by Western blot. FIGS. 2Q and 2R depict the LRRK2 expression levels in mouse striatum upon AICAr treatment. AICAr (72 μg/day/animal) or saline (used as a control) was injected into mouse striatum via osmotic pumps. One day after injection, striatal tissues near the injection sites were collected and LRRK2 expression levels were analyzed by Western blot. Images were quantified by ImageJ software. Data are mean±SEM from total six mice (three male mice and three female mice). ****p<0.0001 by Student's t tests. […] FIG. 2T depicts the quantification of neuronal viability. Bars indicate the viability (n>100) for each transfection condition expressed as a percent of control neurons (eGFP with pcDNA3.1 empty vector). Data represent the mean±SEM from three independent experiments with n>100 cells quantified in each experiment. *p<0.05, ***p<0.001, ****p<0.0001 by one-way ANOVA followed by a Tukey's post hoc test.
# FIGS. 3A-3J depict that AICAr regulates LRRK2 at mRNA level and through a specific region. […] LRRK2 expression levels were analyzed by Western blot. Images were quantified by ImageJ software. […] LRRK2 and GBA mRNA levels were analyzed by real-time PCR. […] LRRK2 mRNA levels were analyzed by real-time PCR. […]
# [1] = tested on: mouse primary cortical neurons; assay: Primary neuronal viability assay, LRRK2-induced neuronal toxicity; assay type: cell-based; details: 1 mM AICAr
# Protocol: Primary neuronal cultures and viability assay. Primary cortical neuronal cultures were prepared from embryonic day 15-16 CD1 fetal mice (Charles River)^1. Briefly, cortices were dissected and dissociated by Trypsin (Invitrogen). The cells were seeded into 24-well plates pre-coated with poly-L-ornithine (Sigma) and were maintained in Neurobasal medium (Gibco) supplemented with B27 supplement (Gibco) and L-glutamine. The glial cells were inhibited by adding 5-fluoro-20-deoxyuridine (5F2DU, 30 μM, Sigma) at days in vitro (DIV) 4. To assess ATIC in LRRK2-induced toxicity, neurons were first infected with lentiviruses of ATIC-shRNA #6 or control-shRNA at DIV 3, and MYC-LRRK2, […] were co-transfected at a plasmid ratio of 10:1 into neurons at DIV 5 using Lipofectamine 2000 reagent (Invitrogen). […] Fixed cells are washed with PBS, permeabilized and blocked for 1 hour with PBS containing 5% goat serum and 0.3% Triton X-100, then detected with rabbit anti-GFP antibody followed by AlexaFluor-488 anti-rabbit IgG antibody. […] For each independent experiment, the percent viability of GFP-positive neurons (n>100) was determined and normalized to the control neurons transfected with pEGFP-N1 plus pcDNA3.1 empty vector.
smiles,measurement,setting,value
"NC(=O)c1ncn([C@@H]2O[C@H](CO)[C@@H](O)[C@H]2O)c1N [AICAr, 5-aminoimidazole-4-carboxamide riboside]",native LRRK2 cDNA expression,"LRRK2; HEK 293T, Flag-LRRK2 native cDNA, 1 mM, 48 hours",great suppress
same,expression of synthesized LRRK2 cDNA with synonymous codons,"LRRK2; HEK 293T, Flag-LRRK2 synthesized cDNA, 1 mM, 48 hours",no obvious effects
same,overexpressed LRRK2 levels,"LRRK2; HEK293 cells transfected with MYC-LRRK2, 1 mM, 48 hours",decreased
same,chimeric LRRK2 cDNA expression,LRRK2; synthesized cDNA with region 2221-3927 bp replaced by native sequence,great suppression
same,LRRK2 GS mutant induced neuronal toxicity,[1]; mouse primary neurons transfected with MYC-LRRK2 G2019S and eGFP,significantly rescued
same,overexpression of LRRK2-WT induced neuronal toxicity,[1]; mouse primary neurons transfected with MYC-LRRK2 WT and eGFP,significantly rescued
